Assay results taken from patent US20030055065A1, “Tricyclic amide and urea compounds useful for inhibition of G-protein function and for treatment of proliferative diseases” (priority 1993, published 2003).
Several values for one entry are separate records, joined by “and”; a condition that tells them apart may be missing. Identical values can stand only once. Like-named read-outs stand apart in the source and are kept apart here.

What was measured:
[1] = tested on: Normal human HEPM fibroblasts; test: Cell Mat Assay: density of mat cells (mIC50); format: cell-based
Method in brief: (§1)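 Serial compound dilutions added 24 h after planting T24-BAG4 cells onto a mat of normal cells, then 14 d colony growth; monolayers glutaraldehyde-fixed and tumor cells X-Gal stained. tIC50 and mIC50 from microscope counts of colonies, cells per colony and mat cell density.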

[2] = tested on: T24-BAG4 human bladder carcinoma cells expressing an activated H-ras gene; test: Cell Mat Assay: tumor cell colony inhibition (tIC50); format: cell-based; conditions: inhibition of tumor cell growth
Method in brief: as §1

[3] = target: T1, geranylgeranyl protein transferase (GGPT) I (Rattus norvegicus, UniProt P53610+Q04631); test: Inhibition of geranylgeranyl protein transferase I (Ras-CVLL as acceptor); format: biochemical; conditions: for IC50: enzyme inhibition
T1 construct: were partially purified from rat brain by ammonium sulfate fractionation followed by Q-Sepharose
Text: 1. In vitro enzyme assays: Inhibition of farnesyl protein transferase and geranylgeranyl protein transferase.
Both farnesyl protein transferase (FPT) and geranylgeranyl protein transferase (GGPT) I were partially purified from rat brain by ammonium sulfate fractionation followed by Q-Sepharose (Pharmacia, Inc.) anion exchange chromatography essentially as described by Yokoyama et al (Yokoyama, K., et al., (1991), A protein geranylgeranyltransferase from bovine brain: Implications for protein prenylation specificity, Proc. Natl. Acad. Sci USA 88: 5302-5306, the disclosure of which is incorporated herein by reference thereto). Human farnesyl protein transferase was also expressed in E. coli, using cDNA clones encoding both the α and β subunits. The methods used were similar to those published (Omer, C. et al., (1993), Characterization of recombinant human farnesyl protein transferase: Cloning, expression, farnesyl diphosphate binding, and functional homology with yeast prenyl-protein transferases, Biochemistry 32:5167-5176). Human farnesyl protein transferase was partially-purified from the soluble protein fraction of E. coli as described above. […] Two forms of val^12-Ha-Ras protein were prepared as substrates for these enzymes, differing in their carboxy terminal sequence. One form terminated in cysteine-valine-leucine-serine (Ras-CVLS) the other in cystein-valine-leucine-leucine (Ras-CVLL). Ras-CVLS is a substrate for the farnesyl protein transferase while Ras-CVLL is a substrate for geranylgeranyl protein transferase I. The cDNAs encoding these proteins were constructed so that the proteins contain an amino-terminal extension of 6 histidine residues. Both proteins were expressed in Escherichia coli and purified using metal chelate affinity chromatography. The radiolabelled isoprenyl pyrophosphate substrates, [^3H]farnesyl pyrophosphate and [3H]geranylgeranyl pyrophosphate, were purchased from DuPont/New England Nuclear.
The geranylgeranyl protein transferase I assay was essentially identical to the farnesyl protein transferase assay described above, with two exceptions: [^3H]geranylgeranylpyrophosphate replaced farnesyl pyrophosphate as the isoprenoid donor and Ras-CVLL was the protein acceptor.

[4] = target: T2, farnesyl protein transferase (FPT), partially purified from rat brain (Rattus norvegicus, UniProt Q02293+Q04631); test: Inhibition of farnesyl protein transferase (transfer of [3H]farnesyl to Ras-CVLS); format: biochemical
T2 construct: were partially purified from rat brain by ammonium sulfate fractionation followed by Q-Sepharose
Method in brief: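 Partially purified farnesyl protein transferase with His6-tagged val12-Ha-Ras-CVLS substrate and [3H]farnesyl pyrophosphate, 30 min at room temperature. Stopped with SDS/TCA, precipitated Ras collected on GF/C filters; percent inhibition relative to DMSO vehicle control.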

[5] = tested on: Ras-CVLS processing in COS monkey kidney cells; test: COS cell assay: Ras-CVLS processing (Western blot); format: cell-based; conditions: COS cells; for IC50: read-out: Inhibition of Ras Processing IC50
Protocol: 2. […] Effect of farnesyl protein transferase inhibitors on Ras processing and on disordered cell growth induced by transforming Ras. COS monkey kidney cells were transfected by electroporation with the plasmid pSV-SPORT (Gibco/BRL) containing a cDNA insert encoding either Ras-CVLS or Ras-CVLL, leading to transient overexpression of a Ras substrate for either farnesyl protein transferase or geranylgeranyl protein transferase I, respectively (see above). […] After 24 hours, media was removed and fresh media containing the appropriate drugs was re-added. 48 hours after electroporation cells were examined under the microscope to monitor disordered cell growth induced by transforming Ras. Cells expressing transforming Ras become more rounded and refractile and overgrow the monolayer, reminiscent of the transformed phenotype. […] Cells were lysed by homogenization and cell debris was removed by centrifugation at 2000×g for 10 min. Cellular protein was precipitated by addition of ice-cold trichloroacetic acid and redissolved in 100 μl of SDS-electrophoresis sample buffer. […] Proteins resolved on the gels were electroblotted onto nitrocellulose membranes for immunodetection. […] E., et al., (1982), Monoclonal antibodies to the p21 products of the transforming gene of Harvey murine sarcome virus and of the cellular ras gene family, J. Virol. 43: 294-304), in PBS containing 1% fetal calf serum for one hour at room temperature. After washing, membranes were incubated for one hour at room temperature with a 1:5000 dilution of secondary antibody, rabbit anti-rat IgG conjugated to horseradish peroxidase, in PBS containing 1% fetal calf serum.

[6] = Ras-CVLS farnesylation, partially purified rat brain FPT, read-out: FPT IC50
[7] = enzyme inhibition, read-out: FPT IC50

T1 sequence (P53610 whole entry, one chain of several): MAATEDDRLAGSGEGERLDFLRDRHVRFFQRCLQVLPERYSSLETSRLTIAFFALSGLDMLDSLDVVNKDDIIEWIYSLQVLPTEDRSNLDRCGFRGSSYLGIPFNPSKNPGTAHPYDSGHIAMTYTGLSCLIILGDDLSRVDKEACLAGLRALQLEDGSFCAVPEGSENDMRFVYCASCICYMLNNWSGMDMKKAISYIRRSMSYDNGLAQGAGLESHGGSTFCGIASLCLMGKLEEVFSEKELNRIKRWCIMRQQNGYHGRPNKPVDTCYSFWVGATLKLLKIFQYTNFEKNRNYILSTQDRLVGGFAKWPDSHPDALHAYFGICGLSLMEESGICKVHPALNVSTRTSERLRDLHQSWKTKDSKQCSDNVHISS
T2 sequence (Q02293 whole entry, one chain of several): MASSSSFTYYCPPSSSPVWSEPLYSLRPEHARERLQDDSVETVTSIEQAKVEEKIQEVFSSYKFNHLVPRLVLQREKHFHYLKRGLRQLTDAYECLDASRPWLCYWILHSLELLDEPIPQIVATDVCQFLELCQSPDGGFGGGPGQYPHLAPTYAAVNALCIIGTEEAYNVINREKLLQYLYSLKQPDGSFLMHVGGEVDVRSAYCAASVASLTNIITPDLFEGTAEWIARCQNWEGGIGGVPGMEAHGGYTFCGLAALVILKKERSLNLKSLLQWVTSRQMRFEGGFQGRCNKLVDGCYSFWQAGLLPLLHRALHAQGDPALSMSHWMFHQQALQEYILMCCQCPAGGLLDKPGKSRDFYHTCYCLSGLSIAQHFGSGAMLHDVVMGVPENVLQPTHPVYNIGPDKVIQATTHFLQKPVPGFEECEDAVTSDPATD

SMILES | IC50 ([1]; Homo sapiens, Fibroblast) [µM] | IC50 ([2]; Homo sapiens) [µM] | IC50 [4, 6] | IC50 [4, 7] | IC50 ([5]; Primates, COS) [µM] | also measured
O=C(Cc1cc[n+]([O-])cc1)N1CCC(C2c3ccc(Cl)cc3CCc3cc(Br)cnc32)CC1 (stereo not drawn) [Example 400-F] | > 25 | < 1.6 | 0.036 µM | 0.036 µM |  | GGPT inhibition at the concentration in parentheses ([3]; (36) μM): 0 (36)
O=C(Cc1ccncc1)N1CCC(=C2c3ccc(Cl)cc3CCc3cc(Br)cnc32)CC1 [Example 246] | 50 |  | 0.06 µM |  |  | IC50 ([1]; listed as 246 (5.121)): > 50 µM; IC50 [3]: > 40 µM
O=C(Cc1cc[n+]([O-])cc1)N1CCC(=C2c3ccc(Cl)cc3C=Cc3cc(Br)cnc32)CC1 [Example 417-B] | > 25 | < 1.6 |  | 0.14 µM |  | GGPT inhibition at the concentration in parentheses ([3]; (32) μM): 15 (32)
O=C(c1ccc(O)c(O)c1)N1CCC(=C2c3ccc(Cl)cc3CCc3cccnc32)CC1 [Example 8] |  |  | 2.3 µM | 2.3 µM |  | IC50 [3]: 42 µM
O=C(Cc1ccncc1)N1CCC(=C2c3ccc(Br)cc3CCc3cccnc32)CC1 [Example 181] |  |  | 0.23 µM |  |  | IC50 [3]: > 42 µM
CN1CCC(CC(=O)N2CCC(C3c4ccc(Cl)cc4C=Cc4cc(Br)cnc43)CC2)CC1 (stereo not drawn) [Example 400-B] |  | < 1.6 | 0.068 µM | 0.068 µM |  | IC50 [3]: > 38 µM
O=C(CN1C(=O)c2ccccc2C1=O)N1CCN(C2c3ccc(Cl)cc3CCc3cccnc32)CC1 (stereo not drawn) [Example 76] | > 50 | > 50 |  |  |  | IC50 [3]: > 50 µM
CC1(C2CCN(C(=O)Cc3ccncc3)CC2)c2ccc(Cl)cc2CCc2cc(Br)cnc21 (stereo not drawn) [Example 410-A] |  |  | 0.086 µM | 0.086 µM |  | GGPT inhibition at the concentration in parentheses ([3]; (35) μM): 47 (35); IC50 [3]: ~40 µM
O=C1Cc2cccnc2C(=C2CCN(C(=O)Cc3cc[n+]([O-])cc3)CC2)c2ccc(Cl)cc21 [Example 418] | > 25 | 25 |  | 1.85 µM | > 10 | 
O=C(Nc1ccccc1)N1CCC(C2c3ccccc3CCc3cccnc32)CC1 (stereo not drawn) [Example 367] |  |  | 3.3 µM |  |  | IC50 [5]: 6.2 µM; IC50 [1]: > 50 µM; IC50 [2]: 6.25 µM
CC(C)(C(=O)N1CCC(=C2c3ccc(Cl)cc3CCc3cc(Br)cnc32)CC1)c1cc[n+]([O-])cc1 [Example 411-D] | > 25 | 8 |  | 0.62 µM | 1.6 | 
CC(C)(C(=O)N1CCC(=C2c3ccc(Cl)cc3CCc3cc(Br)cnc32)CC1)c1ccc[n+]([O-])c1 [Example 411-A] | > 25 | 1.6 |  | 0.59 µM | 0.7 | 
O=C(Nc1ccccn1)N1CCC(=C2c3ccc(Cl)cc3CCc3cccnc32)CC1 [Example 294] | > 50 | 18 | 2.11 µM |  | 5.2 | IC50 [5]: 2.8 µM
O=C1Cc2cccnc2C(=C2CCN(C(=O)Cc3cccnc3)CC2)c2ccc(Cl)cc21 [Example 283] | > 50 | 10 | 0.48 µM and 0.55 µM |  | 5.6 | 
CC(C)(C(=O)N1CCN(C2c3ccc(Cl)cc3CCc3cc(Br)cnc32)CC1)c1ccc[n+]([O-])c1 (stereo not drawn) [Example 352] | > 25 | 1.6 | 0.74 µM and 0.38 µM |  | 2.2 | 
O=C(Cc1ccncc1)N1CCC(C2c3ccc(Cl)cc3C(=NO)Cc3cccnc32)CC1 (stereo not drawn) [Example 419] |  |  |  | < 0.12 µM |  | GGPT inhibition at the concentration in parentheses ([3]; (41) μM): 0 (41)

SMILES | IC50 ([1]; Homo sapiens, Fibroblast) [µM] | IC50 ([2]; Homo sapiens) [µM] | IC50 [4, 6] | IC50 [4, 7] | IC50 ([5]; Primates, COS) [µM] | also measured
CN1CCC(CC(=O)N2CCC(C3c4ccc(Cl)cc4CCc4cc(Br)cnc43)CC2)CC1 (stereo not drawn) [Example 400-J] |  |  | 0.14 µM | 0.14 µM |  | GGPT inhibition at the concentration in parentheses ([3]; (36) μM): 6 (36); IC50 [3]: 1000 µM
CC(C)(C)c1cnc2c(c1)CCc1cc(Cl)ccc1C2=C1CCN(C(=O)Cc2cccnc2)CC1 [Example 304] |  |  | 2.63 µM |  |  | IC50 [1]: > 50 µM; IC50 [3]: > 40 µM
CC(=O)N1CCC(C(=O)N2CCN([C@H]3c4ccc(Cl)cc4CCc4cccnc43)CC2)CC1 [226 (5.101)] | > 50 | 12.5 | 1.8 µM |  | 6.5 | 
O=C(Nc1ccncc1)N1CCC(C2c3ccccc3CCc3cccnc32)CC1 (stereo not drawn) [Example 366] |  |  | 4 µM |  |  | IC50 [5]: 3.3 µM; IC50 [1]: > 50 µM; IC50 [2]: 3.1 µM
O=C(Nc1cccnc1)N1CCC(C2c3ccccc3CCc3cccnc32)CC1 (stereo not drawn) [Example 365] |  |  | 5 µM |  |  | IC50 [5]: 3.1 µM; IC50 [1]: > 50 µM; IC50 [2]: 6.25 µM
O=C(Cc1cc[n+]([O-])cc1)N1CCN(C2c3ccc(Cl)cc3CCc3c(Cl)ccnc32)CC1 (stereo not drawn) [Example 426-A] | > 25 | 6.25 |  | 0.33 µM | > 5 | 
O=C(Cc1cccnc1)N1CCC(=C2c3ccc(Cl)cc3C=Cc3cccnc32)CC1 [Example 276] | 50 | 12.5 | 1.77 µM |  | 2.9 | 
O=C(Cc1cc[n+]([O-])cc1)N1CCC(=C2c3ccc(Cl)cc3CCc3cc(Cl)cnc32)CC1 [Example 411-W] |  |  |  | 0.16 µM and 0.17 µM |  | GGPT inhibition at the concentration in parentheses ([3]; (42) μM): 3 (42)
CC1(C2CCN(C(=O)Cc3cc[n+]([O-])cc3)CC2)c2ccc(Cl)cc2CCc2cc(Br)cnc21 (stereo not drawn) [Example 410-B] |  |  | 0.084 µM | 0.084 µM |  | GGPT inhibition at the concentration in parentheses ([3]; (35) μM): 21 (35); IC50 [3]: 1000 µM
O=C1Cc2cccnc2C(=C2CCN(C(=O)Cc3ccncc3)CC2)c2ccc(Cl)cc21 [Example 285] | > 50 | 12.5 | 0.76 µM |  | 5.2 | IC50 ([5]; listed as 285 (5.153)): 10.1 µM
CC(C)(C(=O)N1CCC(=C2c3ccc(Cl)cc3CCc3cc(Br)cnc32)CC1)c1ccncc1 [Example 411] | > 25 | 18 |  | 0.32 µM | ~1 | Inhibition of Ras Processing at the concentration in parentheses ([5]; (5) μM): 93 (5)
CC(C)(C(=O)N1CCC(=C2c3ccc(Cl)cc3CCc3cccnc32)CC1)c1cccnc1 [Example 300] | > 50 | < 3.1 | 0.96 µM |  | 2.6 | 
O=C(Cc1cccnc1)N1CCC(C2c3ccc(Cl)cc3C=Cc3cccnc32)CC1 (stereo not drawn) [Example 266] | 6.25 | 3.1 |  |  | 0.77 | IC50 ([5]; listed as 266 (5.138)): 0.89 µM; IC50 ([4]; FPT IC50, Ras-CVLS farnesylation, partially purified rat brain FPT): 0.46 µM
O=C(Nc1cccnc1)N1CCN([C@H]2c3ccc(Cl)cc3CCc3cccnc32)CC1 [224 (6.11)] | > 50 | 37 | 0.46 µM |  | 7.3 | 
CC(=O)N1CCC(C(=O)N2CCC(=C3c4ccc(Cl)cc4CCc4cccnc43)CC2)CC1 [Example 89] | > 25 | 6.3 | 1.8 µM |  | 6.3 | 
